Here are results for 14 molecules from US20260138978A1, “POSITIVE ALLOSTERIC MODULATORS OF THE MUSCARINIC ACETYLCHOLINE RECEPTOR M1” (Vanderbilt University, priority 2022, published 2026).

For assay [1], the target named is T1, human mAChRM1 (Homo sapiens, UniProt P11229).
T1 construct: host or cells: CHO-K1
T1 sequence (P11229 1-460): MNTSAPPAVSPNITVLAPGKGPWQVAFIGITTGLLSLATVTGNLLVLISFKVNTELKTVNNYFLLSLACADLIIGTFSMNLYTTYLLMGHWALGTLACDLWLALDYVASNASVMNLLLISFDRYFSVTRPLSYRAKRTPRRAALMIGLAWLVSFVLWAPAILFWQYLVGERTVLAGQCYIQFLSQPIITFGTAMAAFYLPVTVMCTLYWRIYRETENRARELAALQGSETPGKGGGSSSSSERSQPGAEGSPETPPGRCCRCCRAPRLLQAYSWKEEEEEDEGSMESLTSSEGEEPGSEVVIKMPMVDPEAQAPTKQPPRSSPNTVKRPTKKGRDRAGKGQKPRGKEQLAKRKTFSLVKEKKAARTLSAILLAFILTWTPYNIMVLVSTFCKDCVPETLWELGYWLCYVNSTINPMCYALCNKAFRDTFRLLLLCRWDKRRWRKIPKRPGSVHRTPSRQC
In words: mAChR M1 cell-based functional assay (calcium mobilization), positive allosteric modulator activity: increase in the EC20 acetylcholine response. The note with it: for Emax: PAM mode; for EC50: read-out: PAM Activity Human M1 EC50. The text has this:
(§1) Chinese hamster ovary (CHO-K1) cells stably expressing rat (r)M1 were purchased from the American Type Culture Collection and cultured according to their indicated protocol. CHO cells stably expressing human (h)M2, hM3, and hM5 were described previously (Levey, et al., 1991); hM1 and hM4 cDNAs were purchased from Missouri S&T cDNA Resource; rM4 cDNA was provided by T. I. Bonner (National Institutes of Health, Bethesda, MD). rM2 and rM3 were cloned from a rat brain cDNA library and sequence verified. hM1, rM2, rM3, hM4, and rM4 cDNAs were used to stably transfect CHO-K1 cells purchased from the American Type Culture Collection using Lipofectamine 2000. To make stable rM2, hM2, rM3, hM4. and rM4 cell lines for use in calcium mobilization assays, these cells also were stably transfected with a chimeric G-protein (Gqi5) (provided by B. R. Conklin, University of California, San Francisco) using Lipofectamine 2000. rM1, hM1, rM3, hM3, rM5, and hM5 cells were grown in Ham's F-12 medium containing 10% heat-inactivated fetal bovine serum (FBS), 20 mM HEPES, and 50 μg/mL G418 sulfate. rM2-Gqi5, hM2-Gqi5, and hM4-Gqi5 cells were grown in the same medium also containing 500 µg/mL Hygromycin B. Stable rM4-Gqi5 cells were grown in DMEM containing 10% heat-inactivated FBS, 20 mM HEPES, 400 μg/mL G418 sulfate, and 500 μg/mL Hygromycin B.
(§2) For high throughput measurement of agonist-evoked increases in intracellular calcium, CHO-K1 cells stably expressing muscarinic receptors were plated in growth medium lacking G418 and hygromycin at 15,000 cells/[…] in Greiner 384-well black-walled, tissue culture (TC)-treated, clear-bottom plates (VWR). Cells were incubated overnight at 37° C. and 5% CO2. The next day, cells were washed using an ELX 405 (BioTek) with four washes (80 μL) of assay buffer then aspirated to 20 μL. Next, 20 μL of 16 μM Fluo-4/acetoxymethyl ester (Invitrogen, Carlsbad, CA) prepared as a 2.3 mM stock in DMSO and mixed in a 1:1 ratio with 10% (w/v) Pluronic F-127 and diluted in assay buffer was added to the wells and the cell plates were incubated for 50 min at 37° C. and 5% CO2. Dye was removed by washing with the ELX 405 (four 80 μL washes of assay buffer) then aspirated to 20 μL. Compound master plates were formatted in an 11 point CR^c format (1:3 dilutions) in 100% DMSO with a starting concentration of 10 mM using the BRAVO liquid handler (Agilent). Test compound CRCs were then transferred to daughter plates (240 nL) using the Echo acoustic plate reformatter (Labcyte, Sunnyvale, CA) and then diluted into assay buffer ([…]) to a 2× stock using a Thermo Fisher Combi (Thermo Fisher Scientific, Waltham, MA).
(§3) Calcium flux was measured using the Functional Drug Screening System (FDSS) 6000 (Hamamatsu Corporation, Tokyo, Japan) as an increase in the fluorescent static ratio. Compounds were applied to cells (20 μL, 2×) using the automated system of the FDSS 6000 at 4 s into the 300 s protocol and the data were collected at 1 Hz. […] Agonist activity was analyzed as a concentration-dependent increase in calcium mobilization upon compound addition. Emax values for agonist activity are expressed relative to the maximum for acetylcholine. Positive allosteric modulator activity was analyzed as a concentration-dependent increase in the EC20 acetylcholine response. Antagonist activity was analyzed as a concentration-dependent decrease in the EC80 acetylcholine response. Concentration-response curves were generated using a four-parameter logistical equation in XLfit curve fitting software (IDBS, Bridgewater, NJ) for Excel (Microsoft, Redmond, WA) or Prism (GraphPad Software, Inc., San Diego, CA).
Activity (EC50 and Emax) was determined in the mAChRM1 cell-based functional assay as described above and the data are shown in Table 16. The compound numbers correspond to the compound numbers used in Table 15.
Background: A change in cytosolic calcium serves as a functional read-out for many receptors and channels.

Assay [2] deals with T1, human mAChRM1. The assay is described as follows: mAChR M1 cell-based functional assay (calcium mobilization), agonist activity upon compound addition, Emax relative to acetylcholine maximum. The note with it: for Agonist Activity Human M1 EC50 / EC50: calcium mobilization upon compound addition; for Emax: relative to the maximum for acetylcholine.
Description: Lack of agonist activity may be measured as weak or no increase in calcium fluorescence in mAChRM1-transfected CHO-K1 cells in the presence of the compound, compared to the response of equivalent CHO-K1 cells in the absence of the compound. Lack of mAChRM1 agonist activity may be determined as a percent response relative to acetylcholine. For example, a disclosed compound may have less than or equal to 30%, 25%, 20%, 15%, 10%, 5%, or 1% mAChRM1 agonist activity relative to acetylcholine. A disclosed compound may have substantially no mAChRM1 agonist activity. […] The absence of mAChRM1 agonist activity may contribute to the avoidance of cholinergic adverse effect liability.
as §1, §2
as §3, with “Antagonist activity was analyzed as a concentration-dependent decrease in the EC80 acetylcholine response. Concentration-response curves were generated using a four-parameter logistical equation in XLfit curve fitting software (IDBS, Bridgewater, NJ) for Excel (Microsoft, Redmond, WA) or Prism (GraphPad Software, Inc., San Diego, CA).” left out

Setting [3] is: increase in the EC20 acetylcholine response.

For the molecule `Cn1cc2c(-c3cc(F)c(CN4Cc5cccc(F)c5C4=O)c(F)c3)ccc(C(C)(C)O)c2n1` [Compound 154, 2-(2,6-difluoro-4-(7-(2-hydroxypropan-2-yl)-2-methyl-2H-indazol-4-yl)benzyl)-7-fluoroisoindolin-1-one], in assay [1], the Emax is 87%. The EC50 in assay [1] (setting [3]) is 64 nM. Moreover, the “Agonist Activity Human M1 EC50” value in assay [2] is “inactive”.

As for `Cn1cc2c(-c3cc(F)c(CN4Cc5cccc(F)c5C4=O)c(Cl)c3)ccc(C(C)(C)O)c2n1` [Compound 165, 2-(2-chloro-6-fluoro-4-(7-(2-hydroxypropan-2-yl)-2-methyl-2H-indazol-4-yl)benzyl)-7-fluoroisoindolin-1-one], the Emax in assay [1] was found to be 80%. Besides, in assay [1] (setting [3]), the EC50 was found to be 361 nM. For the same molecule, the “Agonist Activity Human M1 EC50” value in assay [2] is “inactive”.

Turning to `Cn1cc2c(-c3cnc(CN4Cc5ncccc5C4=O)cn3)ccc(C(C)(C)O)c2n1` [Compound 109, 6-((5-(7-(2-hydroxypropan-2-yl)-2-methyl-2H-indazol-4-yl)pyrazin-2-yl)methyl)-6,7-dihydro-5H-pyrrolo[3,4-b]pyridin-5-one], the Emax in assay [1] was 70%. The EC50 in assay [1] (setting [3]) was not below 10000 nM. Besides, in assay [2], the “Agonist Activity Human M1 EC50” value is “inactive”.

As to `CC(C)(O)c1ccc(-c2cc(F)c(CN3Cc4ncccc4C3=O)c(F)c2)c2cccnc12` [Compound 38, 6-(2,6-difluoro-4-(8-(2-hydroxypropan-2-yl)quinolin-5-yl)benzyl)-6,7-dihydro-5H-pyrrolo[3,4-b]pyridin-5-one], the Emax in assay [1] worked out at 59%. Also, the EC50 in assay [1] (setting [3]) is 4310 nM. In addition, in assay [2], the “Agonist Activity Human M1 EC50” value was “inactive”.

Take `Cn1cc2c(-c3cc(F)c(CN4Cc5ncccc5C4=O)c(F)c3)ccc(C3(O)CCC3)c2n1` [Compound 96, 6-(2,6-difluoro-4-(7-(1-hydroxycyclobutyl)-2-methyl-2H-indazol-4-yl)benzyl)-6,7-dihydro-5H-pyrrolo[3,4-b]pyridin-5-one]: in assay [1], the Emax worked out at 84%. The EC50 in assay [1] (setting [3]) came out at 630 nM. Also, in assay [2], the “Agonist Activity Human M1 EC50” value is “inactive”.

`Cn1cc2c(-c3ncc(CN4Cc5ncccc5C4=O)cn3)ccc(C(C)(C)O)c2n1` [Compound 111, 6-((2-(7-(2-hydroxypropan-2-yl)-2-methyl-2H-indazol-4-yl)pyrimidin-5-yl)methyl)-6,7-dihydro-5H-pyrrolo[3,4-b]pyridin-5-one]: in assay [1], the Emax came out at 47%. Also, in assay [1] (setting [3]), the EC50 was not below 10000 nM. Further, the “Agonist Activity Human M1 EC50” value in assay [2] is “inactive”.

With `Cn1cc2c(-c3cc(F)c(CN4Cc5ncccc5C4=O)c(F)c3)ccc(C3(O)CNC3)c2n1` [Compound 114, 6-(2,6-Difluoro-4-(7-(3-hydroxyazetidin-3-yl)-2-methyl-2H-indazol-4-yl)benzyl)-6,7-dihydro-5H-pyrrolo[3,4-b]pyridin-5-one], the Emax in assay [1] worked out at 56%. Also, the EC50 in assay [1] (setting [3]) was not below 10000 nM. Besides, in assay [2], the “Agonist Activity Human M1 EC50” value is “inactive”.

On to `CC(C)(O)c1ccc(-c2cc(F)c(CN3Cc4ncccc4C3=O)c(F)c2)c2ncccc12` [Compound 37, 6-(2,6-difluoro-4-(5-(2-hydroxypropan-2-yl)quinolin-8-yl)benzyl)-6,7-dihydro-5H-pyrrolo[3,4-b]pyridin-5-one], for which, in assay [1] (setting [3]), the “PAM Activity Human M1 EC50” value was “inactive”. Moreover, in assay [2], the “Agonist Activity Human M1 EC50” value is “inactive”.

In the case of `Cc1cc(-c2ccc(C(C)(C)O)c3nn(C)cc23)cc(F)c1CN1Cc2cccnc2C1=O` [Compound 123, 6-(2-fluoro-4-(7-(2-hydroxypropan-2-yl)-2-methyl-2H-indazol-4-yl)-6-methylbenzyl)-5,6-dihydro-7H-pyrrolo[3,4-b]pyridin-7-one], the Emax in assay [1] stood at 84%; in assay [2], 34%. Further, the EC50 in assay [1] (setting [3]) is 124 nM; in assay [2], not below 10 µM.

In the case of `CC(C)(O)c1cccc(-c2cc(F)c(CN3Cc4ncccc4C3=O)c(F)c2)c1` [Compound 43, 6-((3,5-difluoro-3′-(2-hydroxypropan-2-yl)-[1,1′-biphenyl]-4-yl)methyl)-6,7-dihydro-5H-pyrrolo[3,4-b]pyridin-5-one], the maximal effect (Emax) in assay [1] was 64%. Moreover, in assay [1] (setting [3]), the EC50 worked out at 3210 nM. Moreover, the “Agonist Activity Human M1 EC50” value in assay [2] was “inactive”.

For the molecule `[2H]C1([2H])c2ncccc2C(=O)N1Cc1c(F)cc(-c2ccc(C(C)(C)O)c3nn(C)cc23)cc1N1CCC1` [Compound 151, 6-(2-(azetidin-1-yl)-6-fluoro-4-(7-(2-hydroxypropan-2-yl)-2-methyl-2H-indazol-4-yl)benzyl)-6,7-dihydro-5H-pyrrolo[3,4-b]pyridin-5-one-7,7-d2], the Emax in assay [1] stood at 85%. The EC50 in assay [1] (setting [3]) stood at 1270 nM. In addition, the “Agonist Activity Human M1 EC50” value in assay [2] was “inactive”.

As to `CN(C)c1cc(-c2ccc(C(C)(C)O)c3nn(C)cc23)cc(F)c1CN1Cc2ncccc2C1=O` [Compound 77, 6-(2-(dimethylamino)-6-fluoro-4-(7-(2-hydroxypropan-2-yl)-2-methyl-2H-indazol-4-yl)benzyl)-6,7-dihydro-5H-pyrrolo[3,4-b]pyridin-5-one], in assay [1], the Emax turned out to be 73%. Also, the EC50 in assay [1] (setting [3]) turned out to be 3870 nM. Besides, in assay [2], the “Agonist Activity Human M1 EC50” value was “inactive”.

On to `Cn1cc2c(-c3cc(F)c(CN4Cc5cccc(F)c5C4=O)cc3F)ccc(C(C)(C)O)c2n1` [Compound 163, 2-(2,5-difluoro-4-(7-(2-hydroxypropan-2-yl)-2-methyl-2H-indazol-4-yl)benzyl)-7-fluoroisoindolin-1-one], for which the Emax was determined as 78% in assay [1] and 11% in assay [2]. In addition, the values for the concentration for a half-maximal effect (EC50) in assay [1] (setting [3]) and in assay [2] were 124 nM and not below 10 µM, respectively.

In the case of `Cc1cc(-c2ccc(C(C)(C)O)cc2)cc(F)c1CN1Cc2cccnc2C1=O` [Compound 118, 6-((3-fluoro-4′-(2-hydroxypropan-2-yl)-5-methyl-[1,1′-biphenyl]-4-yl)methyl)-5,6-dihydro-7H-pyrrolo[3,4-b]pyridin-7-one], in assay [1], the Emax worked out at 67%. Moreover, in assay [1] (setting [3]), the EC50 was found to be 1650 nM.

Broadly, the Emax is the maximal effect, on the per cent scale that the assay sets. Broadly, the EC50 is the concentration that produces a half-maximal response.
